From US9512087B2, “Hybrid molecules containing pharmacophores of fluconazole as antifungal agents and their preparation” (Council for Scientific & Industrial Research, priority 2011, dated 2016)
Converted amounts (≈) assume the structure as drawn.

Legend:
Test in all cases: Antifungal MIC, broth dilution
[1] = tested on: A. niger ATCC 16404; assay type: cell-based, Aspergillus niger; settings: end point 48 hours; for MIC50: Aspergillus niger, ATCC16404, RPMI 1640 with MOPS, read-out: An01 MIC50
Procedure: (§1) The compounds of Formula 1 were tested for antifungal activity against Candida albicans, Aspergillus niger and Fusarium proliferatum. In vitro evaluation of antifungal activity was performed by determining the minimum inhibitory concentration (MIC) following standard methods (CLSI: Reference method for broth dilution antifungal susceptibility testing of yeasts; Approved standard, second edition M27-A2, 2002; CLSI: Reference method for broth dilution antifungal susceptibility testing of filamentous fungi; Approved standard M38-A, 2002). Anti-fungal susceptibility testing of these anti-fungal compounds was done by broth dilution method using RPMI 1640 medium with MOPS buffer. Known anti-fungal agents like fluconazole and amphotericin-B were used as positive control. End points were determined after 48 hours visually and by using spectrophotometer wherever necessary. Different dilutions were tried and various sets of experiments performed. The activity parameters are enumerated in Table 5.

[2] = tested on: C. tropicalis ATCC 750; assay type: cell-based; settings: end point 48 hours; for MIC50: Candida tropicalis, ATCC750, RPMI 1640 with MOPS, read-out: Ct01 MIC50
[3] = tested on: C. glabrata ATCC 90030; assay type: cell-based; settings: end point 48 hours; for MIC50: Nakaseomyces glabratus, ATCC90030, RPMI 1640 with MOPS, read-out: Cg01 MIC50
[4] = tested on: C. krusei ATCC 6258; assay type: cell-based; settings: end point 48 hours; for MIC50: Pichia kudriavzevii, ATCC6258, RPMI 1640 with MOPS, read-out: Ck01 MIC50
[5] = tested on: C. neoformans ATCC 34664; assay type: cell-based; settings: end point 48 hours; for MIC50: Cryptococcus neoformans, ATCC34664, RPMI 1640 with MOPS, read-out: Cn01 MIC50
[6] = tested on: F. proliferatum ATCC 10052; assay type: cell-based, Fusarium proliferatum; settings: end point 48 hours; for MIC50: Fusarium proliferatum, ATCC10052, RPMI 1640 with MOPS, read-out: Fp01 MIC50
Procedure: as §1

[7] = tested on: C. albicans ATCC 24433; assay type: cell-based, Candida albicans; settings: end point 48 hours; for MIC80 / MIC50: Candida albicans, ATCC24433, RPMI 1640 with MOPS; for MIC80: read-out: Ca01 A: MIC80; for MIC50: read-out: Ca01 B: MIC50
Procedure: as §1

[8] = tested on: A. fumigatus ATCC 46645; assay type: cell-based; settings: end point 48 hours; for MIC50: Aspergillus fumigatus, ATCC46645, RPMI 1640 with MOPS, read-out: Afm01 MIC50

| SMILES | MIC50 [1] | MIC50 [2] | MIC50 [3] | MIC50 [4] | MIC50 [5] | MIC50 [6] | MIC80 [7] | MIC50 [7] | MIC50 [8] | An01 MIC50 ([1]; RPMI 1640 with MOPS) | Ct01 MIC50 ([2]; RPMI 1640 with MOPS) | Cg01 MIC50 ([3]; RPMI 1640 with MOPS) | Ck01 MIC50 ([4]; RPMI 1640 with MOPS) | Cn01 MIC50 ([5]; RPMI 1640 with MOPS) | Fp01 MIC50 ([6]; RPMI 1640 with MOPS) | Ca01 A: MIC80 ([7]; RPMI 1640 with MOPS) | Ca01 B: MIC50 ([7]; RPMI 1640 with MOPS) | Afm01 MIC50 ([8]; RPMI 1640 with MOPS) |
| --- | --- | --- | --- | --- | --- | --- | --- | --- | --- | --- | --- | --- | --- | --- | --- | --- | --- | --- |
| O=C(/C=C/c1ccc(OCC(O)(Cn2cncn2)c2ccc(F)cc2F)cc1)C1CC1 (stereo not drawn) [Compound 1A-28] |  |  |  |  |  |  |  |  |  | 8 µg/mL | 0.25 µg/mL | 0.03 µg/mL | 1 µg/mL | 2 µg/mL | >16 µg/mL | 0.06 µg/mL | 0.015 µg/mL | 16 µg/mL |
| O=C(/C=C/c1cccs1)c1ccc(OCC(O)(Cn2cncn2)c2ccc(F)cc2F)cc1 (stereo not drawn) [Compound 1A-13] | > 8 µg/mL | 0.5 µg/mL (≈ 1.07 µM) | 0.25 µg/mL (≈ 0.535 µM) | 8 µg/mL (≈ 17.1 µM) | 1 µg/mL (≈ 2.14 µM) | > 8 µg/mL | 0.25 µg/mL (≈ 0.535 µM) | 0.12 µg/mL (≈ 0.257 µM) | > 8 µg/mL |  |  |  |  |  |  |  |  |  |
| O=C(/C=C/c1cccs1)c1ccc(OC[C@@](O)(Cn2cncn2)c2ccc(F)cc2F)cc1 [S-(+)-1A-13] | > 4 µg/mL | 2 µg/mL (≈ 4.28 µM) | 0.25 µg/mL (≈ 0.535 µM) | > 4 µg/mL | 4 µg/mL (≈ 8.56 µM) | > 4 µg/mL | 0.5 µg/mL (≈ 1.07 µM) | 0.25 µg/mL (≈ 0.535 µM) | > 4 µg/mL |  |  |  |  |  |  |  |  |  |
| O=C(c1ccc(OCC(O)(Cn2cncn2)c2ccc(F)cc2F)cc1)C1OC1c1ccc(Cl)cc1Cl (stereo not drawn) [Compound 1B-2, (3-(2,4-dichlorophenyl)oxiran-2-yl) (4-(2-(2,4-difluorophenyl)-2-hydroxy-3-(1H-1,2,4-triazol-1-yl)propoxy)phenyl)methanone] | > 4 µg/mL | 1 µg/mL (≈ 1.83 µM) | 0.5 µg/mL (≈ 0.915 µM) | 4 µg/mL (≈ 7.32 µM) | 1 µg/mL (≈ 1.83 µM) | > 4 µg/mL | 0.5 µg/mL (≈ 0.915 µM) | 0.5 µg/mL (≈ 0.915 µM) | > 4 µg/mL |  |  |  |  |  |  |  |  |  |
| O=C(/C=C/c1ccc(Cl)cc1Cl)c1ccc(OCC(O)(Cn2cncn2)c2ccc(F)cc2F)cc1 (stereo not drawn) [Compound 1A-7, (E)-3-(2,4-dichlorophenyl)-1-(4-(2-(2,4-difluorophenyl)-2-hydroxy-3-(1H-1,2,4-triazol-1-yl)propoxy)phenyl)prop-2-en-1-one] | > 4 µg/mL | 1 µg/mL (≈ 1.89 µM) | 0.5 µg/mL (≈ 0.943 µM) | 2 µg/mL (≈ 3.77 µM) | 2 µg/mL (≈ 3.77 µM) | > 4 µg/mL | 0.25 µg/mL (≈ 0.471 µM) | 0.25 µg/mL (≈ 0.471 µM) | > 4 µg/mL |  |  |  |  |  |  |  |  |  |
| O=C(/C=C/c1ccc(OCC(O)(Cn2cncn2)c2ccc(F)cc2F)cc1)c1ccc(Cl)cc1Cl (stereo not drawn) [Compound 1A-22] | > 4 µg/mL | 1 µg/mL (≈ 1.89 µM) | 0.5 µg/mL (≈ 0.943 µM) | 2 µg/mL (≈ 3.77 µM) | 1 µg/mL (≈ 1.89 µM) | > 4 µg/mL | 0.25 µg/mL (≈ 0.471 µM) | 0.12 µg/mL (≈ 0.226 µM) | > 4 µg/mL |  |  |  |  |  |  |  |  |  |
| OC(/C=C/c1ccc(Cl)cc1Cl)c1ccc(OCC(O)(Cn2cncn2)c2ccc(F)cc2F)cc1 (stereo not drawn) [Compound 1C-1, (E)-3-(2,4-dichlorophenyl)-1-(4-(2-(2,4-difluorophenyl)-2-hydroxy-3-(1H-1,2,4-triazol-1-yl)propoxy)phenyl)prop-2-en-1-ol] | > 4 µg/mL | 1 µg/mL (≈ 1.88 µM) | 0.25 µg/mL (≈ 0.47 µM) | 4 µg/mL (≈ 7.51 µM) | 0.5 µg/mL (≈ 0.939 µM) | > 4 µg/mL | 0.5 µg/mL (≈ 0.939 µM) | 0.5 µg/mL (≈ 0.939 µM) | > 4 µg/mL |  |  |  |  |  |  |  |  |  |
| COc1ccccc1/C=C/C(=O)c1ccc(OCC(O)(Cn2cncn2)c2ccc(F)cc2F)cc1 (stereo not drawn) [Compound 1A-3] | > 8 µg/mL | 2 µg/mL (≈ 4.07 µM) | 0.5 µg/mL (≈ 1.02 µM) | > 8 µg/mL | 8 µg/mL (≈ 16.3 µM) | > 8 µg/mL | 0.5 µg/mL (≈ 1.02 µM) | 0.25 µg/mL (≈ 0.509 µM) | > 8 µg/mL |  |  |  |  |  |  |  |  |  |

Now from value to compound:

| MIC50 [1] | MIC50 [2] | MIC50 [3] | MIC50 [4] | MIC50 [5] | MIC50 [6] | MIC80 [7] | MIC50 [7] | MIC50 [8] | An01 MIC50 ([1]; RPMI 1640 with MOPS) | Ct01 MIC50 ([2]; RPMI 1640 with MOPS) | Cg01 MIC50 ([3]; RPMI 1640 with MOPS) | Ck01 MIC50 ([4]; RPMI 1640 with MOPS) | Cn01 MIC50 ([5]; RPMI 1640 with MOPS) | Fp01 MIC50 ([6]; RPMI 1640 with MOPS) | Ca01 A: MIC80 ([7]; RPMI 1640 with MOPS) | Ca01 B: MIC50 ([7]; RPMI 1640 with MOPS) | Afm01 MIC50 ([8]; RPMI 1640 with MOPS) | SMILES |
| --- | --- | --- | --- | --- | --- | --- | --- | --- | --- | --- | --- | --- | --- | --- | --- | --- | --- | --- |
| > 4 µg/mL | 0.5 µg/mL (≈ 0.959 µM) | 1 µg/mL (≈ 1.92 µM) | 2 µg/mL (≈ 3.83 µM) | 1 µg/mL (≈ 1.92 µM) | > 4 µg/mL | 0.5 µg/mL (≈ 0.959 µM) | 0.5 µg/mL (≈ 0.959 µM) | > 4 µg/mL |  |  |  |  |  |  |  |  |  | COc1ccc(C(=O)/C=C/c2ccc(OCC(O)(Cn3cncn3)c3ccc(F)cc3F)c(OC)c2)cc1 (stereo not drawn) [Compound 1A-23] |
| > 4 µg/mL | 1 µg/mL (≈ 1.81 µM) | 1 µg/mL (≈ 1.81 µM) | > 4 µg/mL | > 4 µg/mL | > 4 µg/mL | 1 µg/mL (≈ 1.81 µM) | 0.25 µg/mL (≈ 0.453 µM) | > 4 µg/mL |  |  |  |  |  |  |  |  |  | COc1cc(/C=C/C(=O)c2ccc(OCC(O)(Cn3cncn3)c3ccc(F)cc3F)cc2)cc(OC)c1OC (stereo not drawn) [Compound 1A-5] |
| > 4 µg/mL | 2 µg/mL (≈ 4.39 µM) | 0.06 µg/mL (≈ 0.132 µM) | 1 µg/mL (≈ 2.2 µM) | 0.5 µg/mL (≈ 1.1 µM) | > 4 µg/mL | 0.25 µg/mL (≈ 0.549 µM) | 0.12 µg/mL (≈ 0.263 µM) | > 4 µg/mL |  |  |  |  |  |  |  |  |  | CCCCCC(=O)/C=C/c1ccc(OCC(O)(Cn2cncn2)c2ccc(F)cc2F)cc1 (stereo not drawn) [Compound 1A-26] |
